Experimental data from the supplement of paper PMC11781733.
Where a name gives a salt, the structure may show the parent alone.

Assays:
Details in all cases: exposure time: 15 min to 3 h acute
Dugesia japonica [1] = assay: crawl-out incidence (% planarians); higher = higher incidence or increase relative to vehicle control
Protocol: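 Adult asexual Dugesia japonica planarians (1 per well, 48-well plate, n=24 over technical triplicates) were exposed acutely (15 min to 3 h) to each compound (0.5% DMSO or water vehicle) and screened on a robotic platform for crawl-out, stickiness, body shape, phototaxis, noxious-heat scrunching and locomotion endpoints. Binary endpoints are incidence rate x100. Continuous endpoints are the median response normalised to the plate vehicle median, as % change or difference. Negative incidences after vehicle subtraction were set to 0.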

Dugesia japonica [2] = assay: speed in dark vs vehicle (% change vs vehicle); higher = higher incidence or increase relative to vehicle control
Protocol: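 Adult asexual Dugesia japonica planarians (1 per well, 48-well plate, n=24 over technical triplicates) were exposed acutely (15 min to 3 h) to each compound (0.5% DMSO or water vehicle) and screened on a robotic platform for crawl-out, stickiness, body shape, phototaxis, noxious-heat scrunching and locomotion endpoints. Binary endpoints are incidence rate x100 normalised to in-plate vehicle controls. Continuous endpoints are the median response normalised to the plate vehicle median, as % change or difference. Negative incidences after vehicle subtraction were set to 0.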

Dugesia japonica [3] = assay: C-shape incidence (% planarians (vehicle-normalised)); higher = higher incidence or increase relative to vehicle control
How it was run: (§1)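 Body shape incidence, for a given shape or for any abnormal shape, is reported ×100 and normalised to vehicle controls on the same plate, with negative values set to 0. D. japonica planarians fasted for 5–7 days were placed one per well in 200 μL in sealed 48-well plates and exposed to at least 5 concentrations. Within 15 minutes–3 hours of exposure, a researcher scored contraction, C-shape, corkscrew and hyperkinesis manually and blind, excluding worms that crawled out.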

Dugesia japonica [4] = assay: corkscrew incidence (% planarians (vehicle-normalised)); higher = higher incidence or increase relative to vehicle control
How it was run: as §1

Dugesia japonica [5] = assay: stickiness incidence (% planarians (vehicle-normalised)); higher = higher incidence or increase relative to vehicle control
How it was run: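 In the Stickiness assay, fasted Dugesia japonica planarians were each placed in one well of a sealed 48-well plate containing 200 μL of solution, with 0.5% DMSO or water as vehicle. Testing took place 15 min–3 h after exposure to half- or quarter-log concentration series. Stickiness was recorded as a binary endpoint, and its incidence was expressed relative to in-plate vehicle incidence after pooling technical triplicates and removing worms that crawled out. Negative values were set to 0 and all values were multiplied by 100.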

Dugesia japonica [6] = assay: hyperkinesis incidence (% planarians (vehicle-normalised)); higher = higher incidence or increase relative to vehicle control
How it was run: as §1

Dugesia japonica [7] = assay: speed first 30 s blue light vs vehicle (% change vs vehicle); higher = higher incidence or increase relative to vehicle control
How it was run: (§2)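 Crawling speed in the dark or during blue-light periods was measured by automated tracking of intact, fasted Dugesia japonica, one per well of a 48-well plate in 200 μL. Worms were tested 15 min to 3 h after exposure in 0.5% DMSO or water vehicle. Eight worms per concentration per plate were run in technical triplicate (n = 24). Each worm was normalised to the plate's vehicle median, and the value is the median percent change; worms that crawled out were excluded.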

Dugesia japonica [8] = assay: speed second 30 s blue light vs vehicle (% change vs vehicle); higher = higher incidence or increase relative to vehicle control
How it was run: as §2

Dugesia japonica [9] = assay: pharynx extrusion incidence (% planarians (vehicle-normalised)); higher = higher incidence or increase relative to vehicle control
How it was run: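 Fasted, intact Dugesia japonica were scored manually and blind for pharynx extrusion as a body-shape category, with the incidence normalised to in-plate vehicle controls. Testing took place 15 min to 3 h after exposure, one worm per well in 200 μL of 0.5% DMSO or water vehicle, with eight worms per concentration per plate in triplicate (n = 24). Worms that crawled out were excluded, and negative values were set to 0.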

Dugesia japonica [10] = assay: loss of phototaxis incidence (% planarians (vehicle-normalised)); higher = higher incidence or increase relative to vehicle control
How it was run: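 For each concentration, eight intact, fasted Dugesia japonica per plate were placed singly in wells of a 48-well plate in 200 μL and run in technical triplicate (n = 24). Testing took place 15 min to 3 h after exposure in 0.5% DMSO or water vehicle. Loss of phototaxis was recorded as present or absent by automated object tracking and expressed as an incidence rate normalised to in-plate vehicle controls. For this rate, ×100 was applied, negatives were set to 0, and worms that crawled out were excluded.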

Dugesia japonica [11] = assay: total locomotor bursts minus vehicle (bursts difference vs vehicle); higher = higher incidence or increase relative to vehicle control
How it was run: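 Fasted Dugesia japonica planarians, one per well of a sealed 48-well plate in 200 μL solution, were tested 15 min–3 h after exposure to half- or quarter-log concentration series. The vehicle was 0.5% DMSO or water. Total locomotor bursts, an unstimulated behaviour, came from image-based object tracking, with technical triplicates totalling n = 24. Each planarian's value had the plate vehicle-control median subtracted, without ×100 scaling. The value is the median normalised response, and crawled-out worms were excluded.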

Dugesia japonica [12] = assay: noxious heat displacement strength vs vehicle (% change vs vehicle); higher = higher incidence or increase relative to vehicle control
How it was run: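 Each intact, fasted Dugesia japonica was tested alone in a well of a 48-well plate in 200 μL, 15 min to 3 h after exposure in 0.5% DMSO or water vehicle. Eight worms per concentration per plate were used in technical triplicate (n = 24). Displacement strength under noxious heat came from the scrunching assay with automated object tracking and is given as the median percent change against the plate's vehicle median, excluding worms that crawled out.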

Dugesia japonica [13] = assay: contracted body shape incidence (% planarians (vehicle-normalised)); higher = higher incidence or increase relative to vehicle control
How it was run: as §1

Dugesia japonica [14] = assay: anxiety (time in outer well region) vs vehicle (% change vs vehicle); higher = higher incidence or increase relative to vehicle control
How it was run: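 Dugesia japonica planarians fasted for 5–7 days were placed one per well in 200 μL in sealed 48-well plates and exposed to at least 5 concentrations, with n = 24 per concentration in technical triplicates, then screened within 15 minutes–3 hours. Object tracking in MATLAB or Python measured the time each worm spent in the outer portion of the well, and worms that crawled out were excluded. Each response was divided by, or reduced by, the plate vehicle median and multiplied by 100. The reported value is the median of these normalized responses.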

Dugesia japonica [15] = assay: any abnormal body shape incidence (% planarians (vehicle-normalised)); higher = higher incidence or increase relative to vehicle control
How it was run: as §1

Dugesia japonica [16] = assay: resting fraction in dark vs vehicle (difference in fraction x100 vs vehicle); higher = higher incidence or increase relative to vehicle control
How it was run: (§3)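 In technical triplicate, eight intact, fasted Dugesia japonica per concentration per plate were tracked automatically to score the resting fraction in the dark or under blue light. Each worm had its own well of a 48-well plate containing 200 μL and was tested 15 min to 3 h after exposure in 0.5% DMSO or water vehicle. Reported values are medians of each worm's difference from the plate's vehicle median multiplied by 100, leaving out worms that crawled out.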

Dugesia japonica [17] = assay: loss of heat-induced scrunching incidence (% planarians (vehicle-normalised)); higher = higher incidence or increase relative to vehicle control
How it was run: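 Planarians of the species D. japonica, fasted for 5–7 days, were placed singly in wells of sealed 48-well plates in 200 μL and exposed to at least 5 concentrations, 24 worms per concentration in technical triplicates. Scrunching in response to a noxious heat stimulus was tested within 15 minutes–3 hours, and any worm that crawled out was excluded. The reported figure is the incidence of non-scrunching worms, normalised to vehicle controls on the same plate. This incidence is given ×100, with negatives set to 0.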

Dugesia japonica [18] = assay: resting fraction in blue light vs vehicle (difference in fraction x100 vs vehicle); higher = higher incidence or increase relative to vehicle control
How it was run: as §3

Dugesia japonica [19] = assay: crawl-out incidence (% planarians); higher = higher incidence or increase relative to vehicle control; remark: listed apart in the source
Dugesia japonica [20] = assay: speed in dark vs vehicle (% change vs vehicle); higher = higher incidence or increase relative to vehicle control; remark: listed apart in the source
How it was run: as §2

Compound	crawl-out incidence (Dugesia japonica [1])	speed in dark (Dugesia japonica [2])	C-shape incidence (Dugesia japonica [3])	corkscrew incidence (Dugesia japonica [4])	stickiness incidence (Dugesia japonica [5])	hyperkinesis incidence (Dugesia japonica [6])	speed first 30 s blue light (Dugesia japonica [7])	speed second 30 s blue light (Dugesia japonica [8])	pharynx extrusion incidence (Dugesia japonica [9])	loss of phototaxis incidence (Dugesia japonica [10])	total locomotor bursts minus vehicle (Dugesia japonica [11])	noxious heat displacement strength (Dugesia japonica [12])	contracted body shape incidence (Dugesia japonica [13])	anxiety (Dugesia japonica [14])	any abnormal body shape incidence (Dugesia japonica [15])	resting fraction in dark (Dugesia japonica [16])	loss of heat-induced scrunching incidence (Dugesia japonica [17])	resting fraction in blue light (Dugesia japonica [18])	crawl-out incidence (Dugesia japonica [19])	speed in dark (Dugesia japonica [20])
O=C1CCc2ccc(OCCCCN3CCN(c4cccc(Cl)c4Cl)CC3)cc2N1 [aripiprazole] (1 µM)	0	42.8	0	0	≤ 0	0	26	14.3	0	29.2	-5.5	14.8	0	1.67	0	-2.8	≤ 0	-0.33	–	–
O=C(CCCN1CCC(O)(c2ccc(Br)cc2)CC1)c1ccc(F)cc1 [bromperidol] (1 µM)	12.5	-18.6	0	4.35	≤ 0	17.4	-39.2	-17.1	0	≤ 0	2.5	-35.1	0	7.55	17.4	14.6	30.4	17.6	–	–
CC(NC(C)(C)C)C(=O)c1cccc(Cl)c1 (configuration not stated) [bupropion] (10 µM)	0	-21.4	0	0	≤ 0	0	-36.3	0.8	0	12.5	-6	-1.43	0	3.29	0	34.4	4.17	12.6	–	–
O=C1CC2(CCCC2)CC(=O)N1CCCCN1CCN(c2ncccn2)CC1 [buspirone] (1 µM)	0	11.8	4.17	0	≤ 0	8.33	-6.54	-19.1	0	16.7	0.5	-21.9	0	3.11	12.5	-6.06	≤ 0	4.28	–	–
CN(C)CCCC1(c2ccc(F)cc2)OCc2cc(C#N)ccc21 (configuration not stated) [citalopram hydrobromide] (10 µM)	0	-7.94	0	0	12.5	8.33	9.22	-12.8	0	16.7	1.75	-8.3	0	5.9	12.5	1.41	25	0.82	–	–
CN[C@H]1CC[C@@H](c2ccc(Cl)c(Cl)c2)c2ccccc21 [sertraline hydrochloride] (3.16 µM)	–	–	0	0	4.55	4.55	-25.9	-31.9	0	18.2	8	-5.25	0	15.3	4.55	1.05	≤ 0	4.62	8.33	-20.1
CN[C@H]1CC[C@@H](c2ccc(Cl)c(Cl)c2)c2ccccc21 [sertraline hydrochloride] (10 µM)	–	–	0	0	4.17	0	-16.8	0.96	0	≤ 0	-9.5	27	0	1.96	0	-1.57	33.3	0.73	0	24.4
CN[C@H]1CC[C@@H](c2ccc(Cl)c(Cl)c2)c2ccccc21 [sertraline hydrochloride] (31.6 µM)	–	–	0	0	4.35	4.35	-36	-42.3	0	≤ 0	6.5	3.64	0	1.57	4.35	-19.3	47.8	4.64	4.17	-31.9
CN[C@H]1CC[C@@H](c2ccc(Cl)c(Cl)c2)c2ccccc21 [sertraline hydrochloride] (100 µM)	–	–	0	0	≤ 0	91.3	-33.7	-33.9	0	4.35	-5.25	-27.1	0	17.1	91.3	4.98	21.7	3.91	4.17	7.78
[Cl-].[Na+] [sodium chloride] (3470 µM)	–	–	0	0	≤ 0	0	18.8	-2.5	0	≤ 0	0.5	-5.24	0	-4.03	0	2.94	12.5	-8.67	4.17	-7.38
CCCCNc1c(C(=O)OCC)c(C)nc2c1cnn2CC [tracazolate hydrochloride] (3.16 µM)	–	–	0	0	≤ 0	12.5	-7.17	-5.52	0	8.33	0.5	-6.19	0	-16.4	8.33	0	≤ 0	0.22	0	-4.2
CCCCNc1c(C(=O)OCC)c(C)nc2c1cnn2CC [tracazolate hydrochloride] (10 µM)	–	–	0	0	≤ 0	0	-24.7	-17.8	0	≤ 0	4.5	-3.78	0	-12.6	0	1.52	16.7	0	0	-27.1
CCCCNc1c(C(=O)OCC)c(C)nc2c1cnn2CC [tracazolate hydrochloride] (31.6 µM)	–	–	79.2	8.33	≤ 0	12.5	-90.9	-87.7	0	33.3	55.8	-31.1	4.17	-51.8	83.3	39.1	41.7	51	0	-78.9
CCCCNc1c(C(=O)OCC)c(C)nc2c1cnn2CC [tracazolate hydrochloride] (100 µM)	–	–	87.5	12.5	≤ 0	70.8	-91.5	-91.7	8.33	12.5	81.5	-63.6	4.17	-79.8	91.7	61.7	29.2	59	0	-83.4
